From patent publication US8722043B2, “Induction of p53 expression by neutralization of neuropilin-2 for the treatment of cancers” (Diaclone, priority 2008, dated 2014)

Experiments:
[1] = tested on: Colo320 human tumour cells; assay: Tumour colony formation in semi-solid agar medium; type: cell-based; conditions: for number of colonies formed: 50 μg/ml, 10 days post-seeding (FIG. 9)
Experimental: In order to determine whether the ITAC-B1 antibody has a neutralizing activity on the formation of tumour colonies in vitro, tests for tumour colony formation in vitro in a semi-solid agar medium containing agar were carried out. The principle of this test is based on bringing Colo320 human tumour cells (which express NRP-2 at their membrane surface and, furthermore, naturally secrete VEGF into the culture medium) into contact with the ITAC-B1 antibody. 4000 Colo320 cells are seeded into each well of a 24-well plate, in a semi-solid medium containing agar, and in the presence of 10 μg/ml of anti-NRP-2 antibody ITAC-B1. By way of comparison, the same test is carried out in the presence of cytotoxic agents with a proven action, i.e. 5-fluorouracil (5-FU), used at a rate of 50 μg/ml, or of Avastin® (bevacizumab: humanized monoclonal antibodies directed against VEGF), used at a rate of 50 μg/ml, or in the presence of a control isotype antibody (mouse IgG1 monoclonal antibody (BZ1)), used at a rate of 10 μg/ml.
At 10 days post-seeding, the colonies were counted under an optical microscope.
Since neuropilin-2 is a coreceptor for VEGF, it was verified whether the activity of ITAC-B1 was dependent on an interaction between NRP-2 and the VEGF produced by the Colo320 cells. With this aim, the tests for Colo320-cell colony formation were carried out under the conditions described above, and in the presence of ITAC-B1 antibody (10 μg/ml), of bevacizumab (50 μg/ml) or of control antibody (10 μg/ml), used separately or in combination.
The results are given in FIG. 10: the y-axis represents the number of colonies formed; on the x-axis, the antibodies present in the culture medium are indicated by a “+”.

Colo320siRNA-ctrl cells = assay: Annexin V-APC apoptosis test with or without PFTα pretreatment; type: cell-based, human; conditions: PFTα 27 μM, 18 h pretreatment
Experimental: In order to correlate the induction of apoptosis with p53 expression, the Colo320siRNA-ctrl cells were pretreated for 18 h with a chemical inhibitor of p53, pifithrin-α, at a dose of 27 μM (PFTα, Sigma). After pretreatment, the cells are washed twice with 3 ml of PBS and placed in a 24-well plate, at a rate of 100 000 cells/well in 1 ml of RPMI-10% FCS. Non-pretreated cells are placed under the same conditions. The cells are incubated for 5 h with a control murine isotype antibody (BZ1) or ITAC-B1 at 20 μg/ml and the apoptosis is measured as described above.
FIG. 14 represents the results of the apoptosis-induction experiments carried out with the Colo320siRNA-ctrl cells pretreated or not pretreated with PFTα. The percentage of cells labelled with Annexin V-APC is indicated on the y-axis, the cell culture conditions are indicated on the x-axis (control consisting of medium, control consisting of medium supplemented with a control isotype antibody -BZ1-, test consisting of medium supplemented with the ITAC-B1 antibody). The results of the tests carried out with cells pretreated with PFTα are represented in light grey, those of the tests carried out with non-pretreated cells are represented in dark grey.

mutant p53 proteins = conditions: model of human xenograft; review Levesque & Eastman 2007; cited from earlier work
HT29-NRP-2 tumour cells = assay: HT29-NRP-2 subcutaneous xenograft, tumour volume; type: in vivo, immunodeficient mice; conditions: group C: 5-FU intraperitoneally 20 mg/kg D0 to D4, 100 mg/kg at D9
Experimental: HT29-NRP-2 tumour cells were injected subcutaneously into 20 immunodeficient mice, at a rate of 1×10^6 cells per mouse, in the right flank. 10 days after the injection, the tumours measure approximately 5 mm×5 mm.
In accordance with the protocol described above, group B was inoculated with ITAC-B1 at D0 (12 mg/kg), D3 (6 mg/kg), D7 (12 mg/kg) and D10 (6 mg/kg). Group C was inoculated with 20 mg/kg of 5-FU from D0 to D4 and then with 100 mg/kg at D9. Group D was inoculated with ITAC-B1 at D0 (12 mg/kg), D3 (6 mg/kg), D7 (12 mg/kg) and D10 (6 mg/kg) and with 20 mg/kg of 5-FU from D0 to D4 and 100 mg/kg of 5-FU at D9.
The tumours were measured twice a week, and the volume of the tumours was calculated with the formula: V (mm^3)=d^2×D/2.
FIG. 21 represents the tumour volume as a function of time. Group A (PBS control) is represented by (⋄), group B (mice inoculated with the ITAC-B1 antibody) is represented by (▪), group C (mice inoculated with 5-FU) is represented by (Δ), and group D (mice inoculated both with the ITAC-B1 antibody and with 5-FU) is represented by (x).

HT29-NRP-2 cells = assay: Annexin V-APC apoptosis test; type: cell-based, human; conditions: selection criterion of the hybridoma clones
Experimental: In order to determine the ability of the ITAC-B1 antibody to induce apoptosis of tumour cells expressing NRP-2, an in vitro Annexin V-APC apoptosis test was carried out (BD Pharmingen, San Diego, Calif.). This test is based on the externalization of phosphatidylserin by apoptotic cells and on the binding of Annexin V-APC to this molecule.
1 ml of DMEM medium containing 10% of inactivated FCS and 100 000 HT29-NRP-2 cells or 100 000 HT29ctrl cells were seeded, per well, into a 24-well Nunc plate. […] In parallel, “cells alone” controls were carried out, as were negative controls (anti-human mouse IgG1 antibody (BZ1) at the same concentrations as the ITAC-B1 antibody).
[…] When the cells began to detach, 500 μl of DMEM medium-10% FCS were added per well. The cells were then centrifuged, washed twice in PBS, and then taken up in 300 μl of 1× binding buffer (provided in the kit), and then 5 μl of Annexin V-APC were subsequently added to 100 μl of this solution.
The panels of FIG. 13 are point-cloud representations of the flow cytometry analysis. For each of the panels, the fluorescence intensity (corresponding to the labelling of the cells with Annexin V-APC) is represented on the x-axis. The y-axis indicates the granulosity of the cells (Side Scatter or SSC). […] The percentage of cells labelled with Annexin V-APC (corresponding to the percentage of cells having entered into apoptosis) is indicated at the bottom-right of each panel.
The apoptosis induced was then measured by labelling with Annexin V-APC as described above.
The panels of FIG. 15 are point-cloud representations of the flow cytometry analysis. For each of the panels, the fluorescence intensity (corresponding to the labelling of the cells with Annexin V-APC) is represented on the x-axis. The y-axis indicates the granulosity (side scatter) of the cells. The conditions of treatment with the antibodies and the Avastin® are indicated to the left of the panels. The percentage of cells labelled with the Annexin V-APC, corresponding to the percentage of cells having entered into apoptosis, is indicated at the top-right of each panel.

p53 protein = assay: Western blotting of p53 expression after antibody treatment; type: cell-based, human; conditions: HT29-NRP-2 and Colo320^siRNA-ctrl; 20 ng/ml, 48 hours
Experimental: The HT29, HT29-NRP-2, Colo320^siRNA-ctrl tumour cells and Colo320^siRNA-NRP-2 were exposed to 20 ng/ml of ITAC-B1 antibody or of control antibody, and cultured for 48 hours. After lysis of the cell lines, migration of the protein pellets obtained on a 10% polyacrylamide gel (10 μg of protein per well) and then transfer onto a PVDF membrane, the membrane was incubated overnight with the anti-p53 primary antibody (BD Biosciences, mouse anti-human p53) diluted to 1/500. After washing in TBS/0.1% Tween20, the membranes were incubated for 1 hour with an anti-mouse IgG-HRP secondary antibody diluted to 1/6000. The results are represented in FIG. 19.

## bevacizumab [Avastin®]
[1]
  number of colonies formed: approximately 120
[1]; bevacizumab 50 μg/ml (FIG. 10)
  effect on the proliferation of the Colo320 cells (number of colonies): very little effect

## Cc1ccc(C(=O)Cn2c3c(sc2=N)CCCC3)cc1 [PFTα, pifithrin-α, reference compound]
Colo320siRNA-ctrl cells
  effect of pretreatment on ITAC-B1-dependent apoptosis: prevents the ITAC-B1-dependent apoptosis

## O=C1C2CCN(CC2)C1(CO)CO [PRIMA-1]
Mutant p53 proteins
  tumour growth: successfully used to inhibit tumour growth

## COc1ccc(/C=C/c2nc(NCCCN(C)C)c3ccccc3n2)cc1 [CP-31398]
Mutant p53 proteins
  tumour growth: successfully used to inhibit tumour growth

## O=c1[nH]cc(F)c(=O)[nH]1 [5-FU, 5-fluorouracil, reference compound]
[1]
  number of colonies formed: approximately 40
HT29-NRP-2 tumour cells
  tumour volume: reduction in tumour volume is observed starting from D14

## CCC(=O)OCN1C(=O)C=CC1=O [MIRA-1]
Mutant p53 proteins
  tumour growth: successfully used to inhibit tumour growth

B1: ITAC-B2: anti-human neuropilin-2 monoclonal antibody, VH SEQ ID No. 6, VL SEQ ID No. 8 (antibody, listed as Mus musculus, V domains shown)
VH: EVQLEESGGGLVKPGGSLKLSCAASGFTFSDYYMYWVRQTPEKRLEWVATISDGGSYTYYPDSIKGRFTISRDNARNNLYLQMSSLKSEDTAMYYCARGGPYRSWFAFWGQGTLVTVSA
VL: DIVITQTPLSLPVSLGDQASISCRSSQSIVYSNGNTYLEWYLQKPGQSPKLLIYKVSNRFSGVPDRFSGSGSGTDFTLKISRVEAEDLGVYYCFQGSHVPPTFGGGTKLEIK
HT29-NRP-2 cells
  ability to induce apoptosis of tumour cells expressing neuropilin-2 (selection of clones): ability to induce apoptosis of tumour cells expressing neuropilin-2
p53 protein
  expression of p53 in lines which express NRP-2: have the Ability to Induce Expression of the p53 Protein
